Test results reported in PubChem BioAssay (NCI).
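1) Cells in 96-well plates. 2) Compound, 48 h, 5 concentrations. 3) Linear interpolation between surrounding doses. 4) Unreached endpoint = highest concentration. TGI is the concentration that stops growth completely.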

How the values were obtained:
Experiment in all cases: DTP human tumour cell line panel, 48 h
T-47D breast = tested on: T-47D breast
A549 NSCLC = tested on: A549 NSCLC
HCT-15 colon = tested on: HCT-15 colon
SK-MEL-28 melanoma = tested on: SK-MEL-28 melanoma
OVCAR-3 ovarian = tested on: OVCAR-3 ovarian
MOLT-4 leukemia = tested on: MOLT-4 leukemia
SF-295 CNS = tested on: SF-295 CNS
UO-31 renal = tested on: UO-31 renal
TK-10 renal = tested on: TK-10 renal
BT-549 breast = tested on: BT-549 breast
U251 CNS = tested on: U251 CNS
CCRF-CEM leukemia = tested on: CCRF-CEM leukemia
IGROV1 ovarian = tested on: IGROV1 ovarian
SN12C renal = tested on: SN12C renal
M14 melanoma = tested on: M14 melanoma
UACC-62 melanoma = tested on: UACC-62 melanoma
SK-MEL-2 melanoma = tested on: SK-MEL-2 melanoma
K-562 leukemia = tested on: K-562 leukemia
MDA-N = tested on: MDA-N
HCC-2998 colon = tested on: HCC-2998 colon
ACHN renal = tested on: ACHN renal
NCI/ADR-RES ovarian = tested on: NCI/ADR-RES ovarian
SF-268 CNS = tested on: SF-268 CNS
CAKI-1 renal = tested on: CAKI-1 renal
NCI-H522 lung = tested on: NCI-H522 lung
HOP-62 NSCLC = tested on: HOP-62 NSCLC
SNB-19 CNS = tested on: SNB-19 CNS
COLO 205 colon = tested on: COLO 205 colon
HS 578T breast = tested on: HS 578T breast
UACC-257 melanoma = tested on: UACC-257 melanoma
SR leukemia = tested on: SR leukemia
MALME-3M melanoma = tested on: MALME-3M melanoma
NCI-H23 lung = tested on: NCI-H23 lung
786-0 renal = tested on: 786-0 renal
DU-145 prostate = tested on: DU-145 prostate
PC-3 prostate = tested on: PC-3 prostate
MCF7 breast = tested on: MCF7 breast
OVCAR-5 ovarian = tested on: OVCAR-5 ovarian
OVCAR-4 ovarian = tested on: OVCAR-4 ovarian
NCI-H226 lung = tested on: NCI-H226 lung
OVCAR-8 ovarian = tested on: OVCAR-8 ovarian
EKVX NSCLC = tested on: EKVX NSCLC
KM12 colon = tested on: KM12 colon
SK-OV-3 ovarian = tested on: SK-OV-3 ovarian
MDA-MB-231 breast = tested on: MDA-MB-231 breast
A498 renal = tested on: A498 renal
SF-539 CNS = tested on: SF-539 CNS
SNB-75 CNS = tested on: SNB-75 CNS
HCT-116 colon = tested on: HCT-116 colon
HT29 colon = tested on: HT29 colon
NCI-H460 lung = tested on: NCI-H460 lung
SW-620 colon = tested on: SW-620 colon
RPMI-8226 leukemia = tested on: RPMI-8226 leukemia
MDA-MB-435 = tested on: MDA-MB-435
SK-MEL-5 melanoma = tested on: SK-MEL-5 melanoma
HL-60(TB) leukemia = tested on: HL-60(TB) leukemia
RXF 393 renal = tested on: RXF 393 renal
LOX IMVI melanoma = tested on: LOX IMVI melanoma
HOP-92 NSCLC = tested on: HOP-92 NSCLC

Measured: TGI

O=NNc1ccc(S(=O)(=O)c2ccccc2)cn1
not listed: RPMI-8226 leukemia | MDA-MB-435 | SK-MEL-5 melanoma | HL-60(TB) leukemia | RXF 393 renal | LOX IMVI melanoma | HOP-92 NSCLC
> 100 µM: all other assays above

O=C(CSc1nc2ccccc2s1)c1sc2sc3ccccc3[n+]2c1[O-]
not listed: CCRF-CEM leukemia | HCC-2998 colon | SNB-75 CNS
> 100 µM: all other assays above
